In a melting point compilation (Tetko et al.; mined from patent text by program, amines drawn as free bases though some values may be those of a salt) one finds melting point data, which are given here for 34 molecules.

For orientation: melting point means the temperature of the solid-liquid transition. The molecule `COC(=O)C1(NC(=O)Cc2c(C)ccc(-c3ccc(Cl)cc3)c2C)CCC(F)(F)CC1` came in with a melting point of 179 to 183 °C. The result for `CCOC(=O)c1c(Cn2ccnc2CC)nc2cc(OC)c(OC)cc2c1-c1ccc(OC)c(OC)c1` reads 163 to 164 °C; that for `CCS(=O)(=O)N(Cc1cccnc1)c1ccc(Cl)cc1`, 104 to 106 °C. In turn, `NCc1ccn(-c2cc3c(cc2[N+](=O)[O-])[nH]c(=O)c(=O)n3CC(=O)O)c1` returned a melting point greater than 270 °C. In the case of `CCCc1sc2nc(CCl)c(C(=O)OCC)c(-c3ccc(Cl)cc3)c2c1C` it was 95 to 96 °C; in that of `CN1C(=O)CC(c2ccc(CO)cc2)C1C(O)c1ccc(-c2ccccc2)s1` (centres undefined), 205 °C. In the case of `COc1cc(OC)nc(NC(=O)NS(=O)(=O)c2nn(C)c3cccc(F)c23)n1` it was 205 to 209 °C. In the case of `CCCCOc1cccc(C[C@H](NC(C)=O)[C@H](O)CNCc2cccc(CC)c2)c1` it was 112 to 114 °C; in that of `CCC(OCCc1ccc(-c2ccc(Cl)cc2)cc1)C(=O)O` (centres undefined), 90 to 92 °C; in that of `CC(C)C(NS(=O)(=O)c1ccc2c3c(oc2c1)CCCC3)C(=O)O` (centres undefined), 167 to 169 °C. Consider `Cc1coc(-c2ccccc2)c(-c2ccc(Cl)c(Cl)c2)c1=O`, for which the melting point was 104 °C. In the case of `CCN(CC)CCOc1ccc2c(C(=O)NC(=N)N)cccc2c1` it was 168 to 169 °C; in that of `CCOC(=O)c1ccc(NC(=O)[C@H](CO)NS(=O)(=O)c2ccc(Cl)cc2)cc1`, 157 to 160 °C.

In turn, `O=C1Cc2ccc(Cl)cc2C(c2ccccc2)C1` (centres undefined) registered a melting point of 61 to 62 °C.

Take `O=C(CCl)NCCOCCO`: the melting point lay in the range of 130 to 132 °C. In the case of `O=C1OCCC1Nc1ccc(Nc2ccccc2)cc1` (centres undefined) it was 142 to 143 °C. The result for `O=c1c2ccc(Cl)cc2[nH]c2c(O)nn(-c3ccc(O)c(Cl)c3)c(=O)c12` reads 350 to 353 °C; that for `CCCCCCCCn1nc(C)c(N=Nc2c(O)cc(S(=O)(=O)N(CC)CC)c3ccccc23)c1O`, 122 to 123 °C; that for `N#Cc1c(N2CCN(C(=O)c3ccc(C(F)(F)F)cc3)CC2)c2ccccc2n(Cc2ccc(F)cc2)c1=O`, 181 to 185 °C. `O=C(Nc1nccs1)c1c(CO)nc2c(C(F)(F)F)cccc2c1O` came in with a melting point of 280 °C. In turn, `Nc1ccc(S(=O)(=O)Nc2ccc(Cl)c3cc[nH]c23)cn1` registered a melting point of 204 to 206 °C. In the case of `CC(=O)N1CCc2sc(C(=O)CCCN3CCC(c4noc5cc(F)ccc45)CC3)cc2C1` it was 235 °C. The result for `O=C(NC(Cc1c[nH]cn1)C(=O)NC(Cc1ccc(OCc2ccccc2)cc1)C(=O)NCCOCc1ccccc1)OCc1ccccc1` (centres undefined) reads 161 to 165 °C. The result for `Nc1ccn(C2COC(CO)C2O)c(=O)n1` (centres undefined) reads 235 °C; that for `Cc1ccc2c(c1)C(C(=O)Nc1c(Cl)cccc1Cl)c1ccccc1CO2` (centres undefined), 156 to 157 °C. `CC/C(=C(\c1ccc(/C=C/C(=O)O)cc1)c1ccc(OC(=O)c2cccs2)cc1)c1ccccc1` showed a melting point of 175 to 176 °C. The result for `CCOC(=O)Cn1c2c(c3ccc(Cl)c(Cl)c31)CCN(C(=O)OC(C)(C)C)CC2` reads 132 to 135 °C; that for `Cc1oc(-c2ccccc2)nc1CCOc1ccc(C[C@H](OC(C)C)C(=O)O)c2sccc12`, 167 to 168 °C; that for `Cn1c(CCSN2CCC3(CC2)CC(=O)c2cc(NS(C)(=O)=O)ccc2O3)cc(=O)n(C)c1=O`, 198 to 201 °C. In the case of `CCOC(=O)C(O)c1ccccc1Nc1c(Cl)cccc1Cl` (centres undefined) it was 155 to 156 °C; in that of `Cn1cc(C(=O)NCc2ccc(Cl)cc2)c(=O)c2cc(C#CCO)sc21`, 206 to 208 °C. Molecule `Nc1nc2c(c(=O)[nH]1)CCc1ccccc1-2` gave a melting point greater than 300 °C. Consider `O=C(O)c1cccc(-c2ncn(-c3ccc(-c4ccccc4)cc3)n2)c1`, for which the melting point lay in the range of 263 to 265 °C. The result for `COc1ccc(-c2nc(N)sc2-c2ccncc2)cc1` reads 282 to 284 °C.
